{"source": "patent US20230310573A1", "about": "“Stabilized Vaccine Compositions” (priority 2020, published 2023)", "key": {"[1]": {"target": "ectodomain of H1N1 A/Brisbane/59/2007 (SEQ ID NO: 7) (Influenza A virus, UniProt P03452)", "assay": "Heat stress of influenza A HA ectodomain, trimer and monomer content by analytical SEC", "format": "physicochemical", "details": "6 weeks at 40 degree Celsius; 1:6 HA trimer:compound ratio"}, "[2]": {"target": "UFV180933 (HA of B/Brisbane/60/08) (Influenza B virus, UniProt P03460)", "format": "cell-based", "details": "1:90 HA trimer:compound ratio"}, "[3]": {"target": "T1, UFV170091 (HA of B/Massachussetts/2/12) (Influenza B virus, UniProt P03460)", "T1 construct": "Ectodomain of wild type HA of B/Massachussetts/2/12 fused to a foldon domain at the C-terminus; His-tag (C); made in house; host or cells: ExpiCHO", "assay": "Melting temperature (Tm50) of influenza B HA trimer by DSF", "format": "physicochemical", "details": "1:6 HA trimer:compound ratio"}, "[4]": {"target": "T2, UFV180300 (HA of B/Colorado/06/2017) (Influenza B virus, UniProt P03460)", "T2 construct": "SortA (sortase) tag (C); His-tag (C); made in house; host or cells: ExpiCHO", "assay": "Melting temperature (Tm50) of influenza B HA trimer by DSF", "format": "physicochemical", "details": "1:6 HA trimer:compound ratio"}}}
{"smiles": "N#CCCCn1c(CN2C(=O)C3(CN(C(=O)C4(O)CC4)C3)c3ccccc32)cc2cc(Cl)ccc21", "note": "[Compound XV, 4-[5-chloro-2-[[1-(1-hydroxycyclopropanecarbonyl)-2′-oxo-spiro[azetidine-3,3′-indoline]-1′-yl]methyl]indol-1-yl]butanenitrile]", "values": [{"measurement": "trimer content after heat stress (SEC)", "setting": "[1]", "value": "preserved the trimer content"}]}
{"smiles": "c1ccc(CN2CCC(Nc3ccccc3)(c3ccccc3)CC2)cc1", "note": "[XXVII, 1-benzyl-N,4-diphenyl-piperidin-4-amine]", "values": [{"measurement": "monomer and trimer content in supernatant (SEC)", "setting": "[2]", "value": "hardly monomer and mostly trimer"}, {"measurement": "increase of the Tm (DSF)", "setting": "[3]", "value": 0.5, "unit": "°C"}, {"measurement": "increase of the Tm (DSF)", "setting": "[4]", "value": 1, "unit": "°C"}]}
